Patent publication US20150374709A1, “TETRA-SUBSTITUTED NDGA DERIVATIVES VIA ETHER BONDS AND CARBAMATE BONDS AND THEIR SYNTHESIS AND PHARMACEUTICAL USE” (ERIMOS PHARMACEUTICALS LLC, priority 2006, published 2015)
pEC50: −log10 of the molar value.

What was measured:
[1] = system: TAT-mediated transactivation of HIV transcription (HIV-1 LTR promoter); assay: SEAP assay of TAT-mediated transactivation (antiviral activity); type: cell-based, human immunodeficiency virus (HIV); conditions: Human immunodeficiency virus 1, COS-7, 48 h, read-out: SEAP EC50
Method: Antiviral activity is determined using a SEAP (SEcreted Alkaline Phosphatase) assay, in which cells are co-transfected with SEAP and TAT plasmids. TAT is a transactivator, human immunodeficiency virus (HIV) gene expression and is one of the two or more necessary viral regulatory factors (TAT and REV) for HIV gene expression. TAT acts iv binding to the TAR RNA element and activating transcription from the long terminal repeat (LTR) promoter. […] Previous studies have shown that TAT mediates reduction of antibody-dependent T cell proliferation, contributing substantially to the failure of the immune response. TAT also directly stimulates Kaposi's cell growth.
Since TAT has no apparent cellular homologs, this strong positive regulator has become an attractive target for the development of anti-AIDS drugs. In contrast to currently available HIV reverse transcriptase inhibitors (AZT, DDI) or potential protease inhibitors that prevent new rounds of infection, an inhibitor which suppresses viral gene TAT regulated expression of integrated proviral DNA will arrest the virus at an early stage (Hsu et al., Science 254:1799-1802, 1991). Efforts aimed at the elucidation of factors which control gene expression at transcriptional and post-transcriptional levels in host eukaryotes have recently made possible quantitative assessment of TAT function (Sim, Ann. N.Y. Acad. Sci. 616: 64-70, 1990). To screen for inhibitors for TAT regulated transactivation (TAT-TRS), the SEAP reporter gene is put under the control of HIV-1 LTR promoter in the plasmid pBC12/HIV/SEAP. The TAT-coded activity is supplied by a second plasmid construct pBC12/CMV/t2. Transient co-transfection of COS-7 cells with these two plasmids leads to secretion of alkaline phosphatase into the culture medium which is analyzed by a simple colorimetric assay (Berger et al., Gene 66: 1-10, 1988). […]
In the SEAP assay, an inhibitor should cause reduction of SEAP reporter gene expression via transactivation of the HIV-1 LTR promoter by TAT protein (TAT-TRS). […] SEAP is detected colorimetrically by the para-nitrophenyl phosphate substrate at 405 nm. […] The cells are analyzed by the MTT assay to compare cytotoxicity to SEAP inhibition. […]
COS-7 (green monkey kidney) cells were co-transfected using Fugene 6 reagent (Roche Applied Science, Cat. No. 11815091001, Indianapolis, Ind., USA) with two plasmids: pHIVSEAP (SEAP expression vector under the control of the HIV LTR promoter) and pCTAT (HIV TAT transcription factor expression vector under the control of a CMV (cytomegalovirus) promoter). After test compound treatment for 48 hours, samples were analyzed for […] at 405 nm after addition of the p-nitrophenyl phosphate substrate. The percentage of SEAP activity inhibition was calculated in relation to the placebo control.

[2] = system: Leukemia cell lines; assay: NCI DTP human tumor cell line screen, leukemia panel; type: cell-based; conditions: Leukemia (6 cell lines)
Excerpt: The United States National Cancer Institute (NCI) provides a developmental therapeutics program (DTP) (http://dtp.nci.nih.gov/branches/btb/ivelsp.html) to screen submitted substances in support of cancer drug discovery. The In Vitro Cell Line Screening Project (IVCLSP) is a dedicated service providing direct support to the DTP anticancer drug discovery program and is designed to screen up to 3,000 compounds per year for potential anticancer activity. The operation of this screen utilizes 60 different human tumor cell lines, representing leukemia, melanoma and cancers of the lung, colon, brain, ovary, breast, prostate, and kidney. The aim is to prioritize for farther evaluation, synthetic compounds or natural product samples showing selective growth inhibition or cell killing of particular tumor cell lines. This screen is unique in that the complexity of a 60 cell line dose response produced by a given compound results in a biological response pattern which can be utilized in pattern recognition algorithms (COMPARE program. See: http://dtp.nci.nih.gov/docs/compare/compare.html). Using these algorithms, it is possible to assign a putative mechanism of action to a test compound, or to determine that the response pattern is unique and not similar to that of any of the standard prototype compounds included in the NCI database. […]

C[C@H](Cc1ccc(OCCCN2CCCCC2)c(OCCCN2CCCCC2)c1)[C@@H](C)Cc1ccc(OCCCN2CCCCC2)c(OCCCN2CCCCC2)c1 [Compound A, 1,4-bis{3,4-bis[3-(piperidin-1-yl)propoxy]phenyl}-2,3-dimethyl-(2R,3S)-butane]
pEC50 [1]: 6.00 to 6.30
Mean Growth Percent at 10 μM [2]: −81.93%
